Measurements: patent publication US8962652B2, “Derivatives of purine or deazapurine useful for the treatment of (inter alia) viral infections” (Gilead Sciences, Inc., priority 2009, dated 2015)

Tested on: human Peripheral Blood Mononuclear Cell (PMBC)
Test: PBMC assay: cytokine (IFN-alpha) stimulation at 24 hours
Assay type: cell-based
Conditions: minimum concentration for induction of IFN-alpha = 3-fold over background
Experimental: Assays were conducted to determine cytokine stimulation at 24 hours from human Peripheral Blood Mononuclear Cell (PMBC) using the compounds of the present invention. The assays were run in duplicate, with 8-point, half-log dilution curves. The compounds of the present invention were diluted from 10 mM DMSO solution. Cell supernatants are assayed directly for IFNa and 1:10 dilution for TNFa. The assays were performed in a similar fashion as described in Bioorg. Med. Chem. Lett. 16, 4559, (2006). Specifically, cryo-preserved PBMCs were thawed and seeded 96 well plates with 750,000 cells/well in 190 μL/well cell media. The PBMCs were then incubated for 1 hour at 37° C. at […]. Then, the compounds of the present invention were added in 10 μL cell media at 8 point, half-log dilution titration. The plates were incubated at 37° C. and 5% CO2 for 24 hours and then spinned at 1200 rpm for 10 min, which was followed by collecting supernatant and storing the same at −80° C. Cytokine secretion was assayed with Luminex and Upstate multi-plex kits, using a Luminex analysis instrument. IFN MEC value for a compound was the minimum concentration at which IFN-a production stimulated by the compound reached three fold above background, as determined using the assay method above.

Row | SMILES | MEC | minimal effective concentration (read-out: MEC) [µM]
1 | CCCCOc1nc(N)c2[nH]c(=O)n(Cc3cccc(-c4ccccc4CN4CCCC4)c3)c2n1 [A] | d (d: 100 nM-1000 nM) | 
2 | COCCOc1cc2c([nH]c(=O)n2Cc2ccc(-c3ccc(CN4CCCC4)cc3)cc2)c(N)n1 [AX] |  | 0.001 to 0.009
